Measurements: article PMC11079024, “Identification of a family of species-selective complex I inhibitors as potential anthelmintics” (Nature Communications, 2024)
Where “and” joins values, the source holds several entries; their conditions need not be identical. Identical values can stand only once. Like-named read-outs stand apart in the source and are kept apart here.

Molecular target: C. elegans (N2) complex I (NADH:ubiquinone oxidoreductase) (Caenorhabditis elegans, UniProt P24887+Q93873+Q94360)
Sequence (Q94360 17-199): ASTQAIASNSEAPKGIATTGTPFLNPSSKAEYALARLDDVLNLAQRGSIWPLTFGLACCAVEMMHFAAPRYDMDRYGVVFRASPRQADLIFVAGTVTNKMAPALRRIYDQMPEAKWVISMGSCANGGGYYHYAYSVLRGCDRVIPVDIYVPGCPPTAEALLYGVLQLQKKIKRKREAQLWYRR
Sequence (P24887 whole entry): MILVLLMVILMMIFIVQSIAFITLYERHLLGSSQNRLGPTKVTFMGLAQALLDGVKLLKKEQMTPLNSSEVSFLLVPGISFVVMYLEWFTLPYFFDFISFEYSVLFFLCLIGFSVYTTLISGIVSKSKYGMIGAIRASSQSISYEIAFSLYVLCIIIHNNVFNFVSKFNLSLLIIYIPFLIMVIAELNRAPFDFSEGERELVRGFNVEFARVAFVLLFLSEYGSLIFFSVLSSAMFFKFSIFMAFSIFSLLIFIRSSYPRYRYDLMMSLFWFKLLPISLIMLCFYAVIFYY
Sequence (Q93873 31-482): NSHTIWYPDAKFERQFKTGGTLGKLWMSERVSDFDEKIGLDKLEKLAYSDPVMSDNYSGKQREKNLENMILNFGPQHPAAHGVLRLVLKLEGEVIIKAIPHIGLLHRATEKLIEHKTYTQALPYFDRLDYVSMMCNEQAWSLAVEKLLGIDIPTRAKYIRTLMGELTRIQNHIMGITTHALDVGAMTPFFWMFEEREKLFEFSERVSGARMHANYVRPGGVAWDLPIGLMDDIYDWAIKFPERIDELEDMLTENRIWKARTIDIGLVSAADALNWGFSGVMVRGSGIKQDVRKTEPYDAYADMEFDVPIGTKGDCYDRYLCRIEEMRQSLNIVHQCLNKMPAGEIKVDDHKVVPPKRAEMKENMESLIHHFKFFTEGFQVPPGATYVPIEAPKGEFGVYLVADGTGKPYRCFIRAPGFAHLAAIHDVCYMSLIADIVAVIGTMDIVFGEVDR
Test: biochemical
Type: biochemical
Summary of the method: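 Mitochondria, 0.2 mg/mL protein, freeze-thawed three times, assayed in 25 mM KPi pH 7.5 with BSA, 80 μM NADH, 60 μM decylubiquinone, 160 μM DCIP, antimycin A and KCN. Rate from initial linear slope of A600 over 15 min. % of solvent control.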

[1] = wild-type C. elegans, mean of replicates, read-out: in vitro complex I activity relative to solvent control, Mean
[2] = wild-type C. elegans, single replicate, read-out: in vitro complex I activity relative to solvent control, individual replicate

## COC(=O)Nc1nc2ccc(C(=O)c3ccccc3)cc2[nH]1 [mebendazole, reference compound]
0.125 µM, wild-type C. elegans mitochondria, mean of replicates, read-out: percent (%) in vitro complex I activity relative to solvent control
  remaining activity at 0.125 µM: 104%
0.125 µM, wild-type C. elegans mitochondria, single replicate
  percent (%) in vitro complex I activity relative to solvent control: 95.514% and 94.187% and 106.525% and 121.019%
0.313 µM, wild-type C. elegans mitochondria, mean of replicates, read-out: percent (%) in vitro complex I activity relative to solvent control
  remaining activity at 0.313 µM: 102%
0.313 µM, wild-type C. elegans mitochondria, single replicate
  percent (%) in vitro complex I activity relative to solvent control: 96.314% and 108.975% and 110.715%
0.313 µM, wild-type C. elegans mitochondria, single replicate, read-out: percent (%) in vitro complex I activity relative to solvent control
  remaining activity at 0.313 µM: 92.7%
0.625 µM, wild-type C. elegans mitochondria, mean of replicates, read-out: percent (%) in vitro complex I activity relative to solvent control
  remaining activity at 0.625 µM: 105%
0.625 µM, wild-type C. elegans mitochondria, single replicate
  percent (%) in vitro complex I activity relative to solvent control: 110.023% and 108.944%
0.625 µM, wild-type C. elegans mitochondria, single replicate, read-out: percent (%) in vitro complex I activity relative to solvent control
  remaining activity at 0.625 µM: 100%
1.5 µM, wild-type C. elegans mitochondria, mean of replicates, read-out: percent (%) in vitro complex I activity relative to solvent control
  remaining activity at 1.5 µM: 101%
1.5 µM, wild-type C. elegans mitochondria, single replicate
  percent (%) in vitro complex I activity relative to solvent control: 91.749% and 101.813% and 107.753%
1.5 µM, wild-type C. elegans mitochondria, single replicate, read-out: percent (%) in vitro complex I activity relative to solvent control
  remaining activity at 1.5 µM: 101%
3 µM, wild-type C. elegans mitochondria, mean of replicates, read-out: percent (%) in vitro complex I activity relative to solvent control
  remaining activity at 3 µM: 104%
3 µM, wild-type C. elegans mitochondria, single replicate
  percent (%) in vitro complex I activity relative to solvent control: 97.513% and 112.361% and 102.837%
3 µM, wild-type C. elegans mitochondria, single replicate, read-out: percent (%) in vitro complex I activity relative to solvent control
  remaining activity at 3 µM: 104%
15 µM, wild-type C. elegans mitochondria, mean of replicates, read-out: percent (%) in vitro complex I activity relative to solvent control
  remaining activity at 15 µM: 102%
15 µM, wild-type C. elegans mitochondria, single replicate
  percent (%) in vitro complex I activity relative to solvent control: 94.944% and 106.604% and 105.394%
15 µM, wild-type C. elegans mitochondria, single replicate, read-out: percent (%) in vitro complex I activity relative to solvent control
  remaining activity at 15 µM: 102%
37.5 µM, wild-type C. elegans mitochondria, mean of replicates, read-out: percent (%) in vitro complex I activity relative to solvent control
  remaining activity at 37.5 µM: 97.7%
37.5 µM, wild-type C. elegans mitochondria, single replicate
  percent (%) in vitro complex I activity relative to solvent control: 90.732% and 104.066% and 100.084%
37.5 µM, wild-type C. elegans mitochondria, single replicate, read-out: percent (%) in vitro complex I activity relative to solvent control
  remaining activity at 37.5 µM: 95.9%
75 µM, wild-type C. elegans mitochondria, mean of replicates, read-out: percent (%) in vitro complex I activity relative to solvent control
  remaining activity at 75 µM: 91.3%
75 µM, wild-type C. elegans mitochondria, single replicate
  percent (%) in vitro complex I activity relative to solvent control: 90.802% and 93.867% and 91.631%
75 µM, wild-type C. elegans mitochondria, single replicate, read-out: percent (%) in vitro complex I activity relative to solvent control
  remaining activity at 75 µM: 88.8%

## C=C(C)[C@H]1Cc2c(ccc3c2O[C@@H]2COc4cc(OC)c(OC)cc4[C@@H]2C3=O)O1 [Rotenone, reference compound]
100 µM compound, relative to solvent control, mean (SEM), read-out: % Activity Complex I
  activity at 100 µM: 0%
100 μM inhibitor, in vitro activity relative to solvent control, N2 C. elegans mitochondria, single replicate, read-out: CI Activity
  activity at 100 µM: 0%
100 μM of NPD compound, C. elegans mitochondria, individual biological replicates, read-out: Percent in vitro activity, Complex I (single replicate Rep1-Rep4)
  activity at 100 µM: 0%
100 μM of NPD compound, C. elegans mitochondria, mean of four biological replicates, read-out: Percent in vitro activity, Complex I (Mean)
  activity at 100 µM: 0%
30 s, single replicate
  Absorbance DCIP [600nm], complex I: 1.265 and 1.244 and 1.248
60 s, single replicate
  Absorbance DCIP [600nm], complex I: 1.261 and 1.240 and 1.243
90 s, single replicate
  Absorbance DCIP [600nm], complex I: 1.257 and 1.236 and 1.240
120 s, single replicate
  Absorbance DCIP [600nm], complex I: 1.252 and 1.232 and 1.237
150 s, single replicate
  Absorbance DCIP [600nm], complex I: 1.248 and 1.229 and 1.234
180 s, single replicate
  Absorbance DCIP [600nm], complex I: 1.244 and 1.226 and 1.230
210 s, single replicate
  Absorbance DCIP [600nm], complex I: 1.240 and 1.223 and 1.227
240 s, single replicate
  Absorbance DCIP [600nm], complex I: 1.237 and 1.219 and 1.223
270 s, single replicate
  Absorbance DCIP [600nm], complex I: 1.233 and 1.216 and 1.220 and 1.199
300 s, single replicate
  Absorbance DCIP [600nm], complex I: 1.229 and 1.212 and 1.216 and 1.196
330 s, single replicate
  Absorbance DCIP [600nm], complex I: 1.225 and 1.209 and 1.213 and 1.193
360 s, single replicate
  Absorbance DCIP [600nm], complex I: 1.221 and 1.206 and 1.210 and 1.190
390 s, single replicate
  Absorbance DCIP [600nm], complex I: 1.218 and 1.203 and 1.206 and 1.187
420 s, single replicate
  Absorbance DCIP [600nm], complex I: 1.214 and 1.199 and 1.203 and 1.185
450 s, single replicate
  Absorbance DCIP [600nm], complex I: 1.210 and 1.196 and 1.200 and 1.182
480 s, single replicate
  Absorbance DCIP [600nm], complex I: 1.206 and 1.193 and 1.197 and 1.179
510 s, single replicate
  Absorbance DCIP [600nm], complex I: 1.203 and 1.190 and 1.193 and 1.176
540 s, single replicate
  Absorbance DCIP [600nm], complex I: 1.199 and 1.187 and 1.190 and 1.174
570 s, single replicate
  Absorbance DCIP [600nm], complex I: 1.195 and 1.183 and 1.187
600 s, single replicate
  Absorbance DCIP [600nm], complex I: 1.192 and 1.180 and 1.184
630 s, single replicate
  Absorbance DCIP [600nm], complex I: 1.188 and 1.177 and 1.181
660 s, single replicate
  Absorbance DCIP [600nm], complex I: 1.185 and 1.174 and 1.177
690 s, single replicate
  Absorbance DCIP [600nm], complex I: 1.181 and 1.171 and 1.174
720 s, single replicate
  Absorbance DCIP [600nm], complex I: 1.178 and 1.168 and 1.171
750 s, single replicate
  Absorbance DCIP [600nm], complex I: 1.174 and 1.164 and 1.168
780 s, single replicate
  Absorbance DCIP [600nm], complex I: 1.171 and 1.161 and 1.165
810 s, single replicate
  Absorbance DCIP [600nm], complex I: 1.167 and 1.158 and 1.162
840 s, single replicate
  Absorbance DCIP [600nm], complex I: 1.164 and 1.155 and 1.159
870 s, single replicate
  Absorbance DCIP [600nm], complex I: 1.161 and 1.152 and 1.156
900 s, single replicate
  Absorbance DCIP [600nm], complex I: 1.157 and 1.149 and 1.153
[1]
  remaining activity at 0.0001 µM: 95.7%
  remaining activity at 0.0005 µM: 104%
  remaining activity at 0.0025 µM: 110%
  remaining activity at 0.005 µM: 101%
  remaining activity at 0.013 µM: 90.6%
  remaining activity at 0.063 µM: 27%
[2]
  remaining activity at 0.0001 µM: 90.6%
  remaining activity at 0.0005 µM: 108%
  remaining activity at 0.0025 µM: 108%
  remaining activity at 0.005 µM: 97%
  remaining activity at 0.013 µM: 89.2%
  remaining activity at 0.063 µM: 21.5%
Dose 0.001 µM, wild-type C. elegans, mean of replicates, read-out: in vitro complex I activity relative to solvent control, Mean
  remaining activity at 0.001 µM: 104%
Dose 0.025 µM, wild-type C. elegans, mean of replicates, read-out: in vitro complex I activity relative to solvent control, Mean
  remaining activity at 0.025 µM: 89.6%
Dose 0.125 µM, wild-type C. elegans, mean of replicates, read-out: in vitro complex I activity relative to solvent control, Mean
  remaining activity at 0.125 µM: 26.8%
Dose 0.125 µM, wild-type C. elegans, single replicate, read-out: in vitro complex I activity relative to solvent control, individual replicate
  remaining activity at 0.125 µM: 17.8%
Dose 0.313 µM, wild-type C. elegans, mean of replicates, read-out: in vitro complex I activity relative to solvent control, Mean
  remaining activity at 0.313 µM: 0.682%
Dose 0.625 µM, wild-type C. elegans, mean of replicates, read-out: in vitro complex I activity relative to solvent control, Mean
  remaining activity at 0.625 µM: 0.888%
Dose 1.5 µM, wild-type C. elegans, mean of replicates, read-out: in vitro complex I activity relative to solvent control, Mean
  remaining activity at 1.5 µM: 7.71%
Dose 3 µM, wild-type C. elegans, mean of replicates, read-out: in vitro complex I activity relative to solvent control, Mean
  remaining activity at 3 µM: 5.32%
Dose 15 µM, wild-type C. elegans, mean of replicates, read-out: in vitro complex I activity relative to solvent control, Mean
  remaining activity at 15 µM: 5.62%
Dose 37.5 µM, wild-type C. elegans, mean of replicates, read-out: in vitro complex I activity relative to solvent control, Mean
  remaining activity at 37.5 µM: 6.72%
Dose 75 µM, wild-type C. elegans, mean of replicates, read-out: in vitro complex I activity relative to solvent control, Mean
  remaining activity at 75 µM: 3.64%
wild-type (N2) mitochondria, read-out: C. elegans Complex I IC50
  IC50: 45 nM
